{"source": "paper PMC8556396", "about": "“Statin-mediated disruption of Rho GTPase prenylation and activity inhibits respiratory syncytial virus infection” (Communications Biology, 2021)", "assay_type_in_all_cases": "cell-based, Respiratory syncytial virus", "key": {"[1]": {"test_system": "RSV-GFP", "assay": "RSV-GFP infection of HEp-2 cells, automated imaging, dose-response", "conditions": "for EC50: HEp-2, 2 h; for inhibition at 0.75 µM: read-out: RSV-GFP inhibition (%), log Conc (uM) -0.12494; for inhibition at 0.5 µM: read-out: RSV-GFP inhibition (%), log Conc (uM) -0.30103; for inhibition at 0.25 µM: read-out: RSV-GFP inhibition (%), log Conc (uM) -0.60206; for inhibition at 0.1 µM: read-out: RSV-GFP inhibition (%), log Conc (uM) -1; for inhibition at 0.05 µM: read-out: RSV-GFP inhibition (%), log Conc (uM) -1.30103; for inhibition at 0.01 µM: read-out: RSV-GFP inhibition (%), log Conc (uM) -2; for RSV-GFP inhibition (%): 48 h p.i.", "procedure": "HEp-2 cells were seeded to black, flat, microclear-bottom 96-well plates (655096, Greiner Bio-One) at a density of 5000 cells per well and incubated at 37 °C/5% CO2 overnight. The following morning, cells were washed twice with serum-free EMEM and treated with RSV-GFP (MOI 0.5) in a minimal volume of serum-free media for 90 min under frequent agitation. Unbound virus was then removed and replaced with fresh serum-containing EMEM. All drug additions were performed 2 h post-viral exposure, unless otherwise stated. Nuclei were stained with Hoechst 33342 (H3570, Thermo Fisher Scientific) (at a final concentration of 1 µg/mL) 48 h p.i. and imaging was performed using the Cellomics ArrayScan VTI HCS Reader at ×10 magnification (SPARC BioCentre, The Hospital for Sick Children, Toronto, ON).\nAutomated quantification of infection rates from fluorescent images were performed in CellProfiler (v2.2.0)[86]. Major steps in the image analysis pipeline included: (1) background subtraction and smoothing, (2) segmentation of nuclei, (3) segmentation of GFP-fluorescent area, (4) object masking, and (5) measurement of nuclear number, size, and intensity. Infection rate was quantified from the ratio of nuclei within GFP-fluorescent area to the total number of nuclei (Fig. 1b). This method of analysis accounts for in vitro syncytium formation induced by RSV, whereby a single infected cell may arise from the fusion of multiple cells. Mean nuclear fluorescent intensity and size was quantified as a measure of cell viability. […]"}, "[2]": {"test_system": "RSV-GFP", "assay": "microbe, parasite or virus in culture", "conditions": "human respiratory syncytial virus, HEp-2, read-out: RSV-GFP inhibition (%)", "procedure": "The following morning, cells were washed twice with serum-free EMEM and treated with RSV-GFP (MOI 0.5) in a minimal volume of serum-free media for 90 min under frequent agitation. Unbound virus was then removed and replaced with fresh serum-containing EMEM. All drug additions were performed 2 h post-viral exposure, unless otherwise stated.\nAutomated quantification of infection rates from fluorescent images were performed in CellProfiler (v2.2.0)[86]. Major steps in the image analysis pipeline included: (1) background subtraction and smoothing, (2) segmentation of nuclei, (3) segmentation of GFP-fluorescent area, (4) object masking, and (5) measurement of nuclear number, size, and intensity. Infection rate was quantified from the ratio of nuclei within GFP-fluorescent area to the total number of nuclei (Fig. 1b). This method of analysis accounts for in vitro syncytium formation induced by RSV, whereby a single infected cell may arise from the fusion of multiple cells. Mean nuclear fluorescent intensity and size was quantified as a measure of cell viability.\nThe MicroSource […] Collection (Discovery Systems Inc.) consisting of 2400 compounds was screened using the previously outlined RSV-GFP infection assay protocol. Robot-assisted addition of drugs was performed within 1 h of RSV-GFP infection and infection rates were assayed 48 h p.i. Drugs were provided as 10 mM stocks in DMSO and serial diluted to a final concentration of 10 µM, resulting in a final DMSO concentration of 0.1% v/v. […] Hits were selected based on the criteria that: (a) the tested drug caused a >50% reduction in infection rate and (b) was not overtly cytotoxic (<10% change in mean nuclear intensity relative to DMSO control). Z-factors were calculated on a per-plate basis to monitor assay quality."}, "[3]": {"test_system": "RSV A2", "assay": "Quantification of infectious virus production (plaque assay)", "conditions": "Fig 7A; Rhosin 50 uM, EHT 1864 20 uM, ML 141 10 uM; replicate values", "procedure": "HEp-2 cells were seeded to six-well plates at a density of 1 × 10^6 cells per well and incubated overnight at 37 °C/5% CO2. The following morning, cells were infected with RSV A2 (MOI 1.0) and treated with drugs 2 h post-viral exposure. The supernatant, containing progeny virions, was collected 48 h p.i., snap frozen, and stored at −80 °C. Quantification of infectious virus particles was performed by a traditional plaque assay. HEp-2 cells were seeded to six-well plates at a density of 1.5 × 10^6 cells per well and grown to 90% confluency. Cells were incubated with serial dilutions of the collected supernatants for 90 min at 37 °C/5% CO2 under frequent agitation. The inoculant was then removed and replaced with 4 mL of 1:1 4% FBS DMEM-F12/1% agarose. Plates were incubated for 5 days at 37 °C/5% CO2. Cells were then fixed with 10% formalin for 30 min at room temperature. After fixation and removal of agarose from each well, the cells were stained with 0.05% neutral red and plaques were quantified under a dissecting microscope."}, "[4]": {"conditions": "human respiratory syncytial virus, HEp-2, RSV-GFP MOI 0.5, treated 2 h post-viral exposure"}, "[5]": {"conditions": "human respiratory syncytial virus, HEp-2, 48 h, replicate values"}}, "note": "“And” between values parts separate entries of the source, which are not always exact repeats. Identical values can stand only once. “Also recorded” adds a separate entry of the source.", "data": [{"molecule": "C[C@H]1O[C@@H](O[C@H]2[C@@H](O)C[C@H](O[C@H]3[C@@H](O)C[C@H](O[C@H]4CC[C@@]5(C)[C@H](CC[C@@H]6[C@@H]5C[C@@H](O)[C@]5(C)[C@@H](C7=CC(=O)OC7)CC[C@]65O)C4)O[C@@H]3C)O[C@@H]2C)C[C@H](O)[C@@H]1O", "note": "[Digoxin]", "values": [{"measurement": "EC50", "setting": "[1]; [4]", "result": 26, "unit": "nM"}, {"measurement": "inhibition at 0.75 µM", "setting": "[1]; [5]", "result": 99.9, "unit": "%"}, {"measurement": "inhibition at 0.5 µM", "setting": "[1]; [5]", "result": 100, "unit": "%"}, {"measurement": "inhibition at 0.25 µM", "setting": "[1]; [5]", "result": 86.5, "unit": "%"}, {"measurement": "inhibition at 0.1 µM", "setting": "[1]; [5]", "result": 85.5, "unit": "%"}, {"measurement": "inhibition at 0.05 µM", "setting": "[1]; [5]", "result": 68.3, "unit": "%"}, {"measurement": "inhibition at 0.01 µM", "setting": "[1]; [5]", "result": 25.2, "unit": "%"}, {"measurement": "inhibition at 0.0075 µM", "setting": "[1]; human respiratory syncytial virus, HEp-2, 48 h, read-out: RSV-GFP inhibition (%), log Conc (uM) -2.12494, replicate values", "result": 18, "unit": "%"}, {"measurement": "inhibition at 0.001 µM", "setting": "[1]; human respiratory syncytial virus, HEp-2, 48 h, read-out: RSV-GFP inhibition (%), log Conc (uM) -3, replicate values", "result": 9.48, "unit": "%"}, {"measurement": "inhibition at 10 µM", "setting": "[2]", "result": 99.1, "unit": "%"}]}, {"molecule": "CNc1nc(C)c(-c2nc(Nc3cccc(S(N)(=O)=O)c3)ncc2F)s1", "note": "[CDKI-73]", "values": [{"measurement": "effect on RSV-GFP infection rate", "setting": "[1]; CDKI-73 0.5 µM or 1.0 µM", "result": "did not reduce infection rate; also recorded: did not reduce RSV-GFP infection rates"}, {"measurement": "RSV-GFP inhibition (%)", "setting": "[1]; CDKI-73 0.5 uM, replicate values", "result": "15.9529% and 3.2849% and 2.901% and 0.6729%"}, {"measurement": "RSV-GFP inhibition (%)", "setting": "[1]; CDKI-73 1 uM, replicate values", "result": "5.404% and 7.553% and -1.2228% and 1.11%"}]}, {"molecule": "ML 141", "values": [{"measurement": "Virus titre (log10 PFU/mL)", "setting": "[3]", "result": "5 log10 PFU/mL and 5.079 log10 PFU/mL and 5.176 log10 PFU/mL and 5.204 log10 PFU/mL"}]}, {"molecule": "C[C@H]1O[C@@H](O[C@H]2[C@@H](O)C[C@H](O[C@H]3[C@@H](O)C[C@H](O[C@H]4CC[C@@]5(C)[C@H](CC[C@@H]6[C@@H]5CC[C@]5(C)[C@@H](C7=CC(=O)OC7)CC[C@]65O)C4)O[C@@H]3C)O[C@@H]2C)C[C@H](O)[C@@H]1O", "note": "[Digitoxin]", "values": [{"measurement": "EC50", "setting": "[1]; [4]", "result": 11, "unit": "nM"}, {"measurement": "inhibition at 0.5 µM", "setting": "[1]; [5]", "result": 99.9, "unit": "%"}, {"measurement": "inhibition at 0.25 µM", "setting": "[1]; [5]", "result": 98.6, "unit": "%"}, {"measurement": "inhibition at […]", "setting": "[1]; human respiratory syncytial virus, HEp-2, 48 h, read-out: RSV-GFP inhibition (%), log Conc (uM) -0.75696, replicate values", "result": 99.8, "unit": "%"}, {"measurement": "inhibition at 0.1 µM", "setting": "[1]; [5]", "result": 78.3, "unit": "%"}, {"measurement": "inhibition at 0.05 µM", "setting": "[1]; [5]", "result": 73, "unit": "%"}, {"measurement": "inhibition at 0.04 µM", "setting": "[1]; human respiratory syncytial virus, HEp-2, 48 h, read-out: RSV-GFP inhibition (%), log Conc (uM) -1.39794, replicate values", "result": 78.7, "unit": "%"}, {"measurement": "inhibition at 0.03 µM", "setting": "[1]; human respiratory syncytial virus, HEp-2, 48 h, read-out: RSV-GFP inhibition (%), log Conc (uM) -1.52288, replicate values", "result": 82, "unit": "%"}, {"measurement": "inhibition at 0.02 µM", "setting": "[1]; human respiratory syncytial virus, HEp-2, 48 h, read-out: RSV-GFP inhibition (%), log Conc (uM) -1.69897, replicate values", "result": 68.5, "unit": "%"}, {"measurement": "inhibition at 0.01 µM", "setting": "[1]; [5]", "result": 55, "unit": "%"}, {"measurement": "inhibition at 10 µM", "setting": "[2]", "result": 98.8, "unit": "%"}]}, {"molecule": "O=C(Nc1ccc([N+](=O)[O-])cc1Cl)c1cc(Cl)ccc1O", "note": "[Niclosamide]", "values": [{"measurement": "EC50", "setting": "[1]; [4]", "result": 443, "unit": "nM"}, {"measurement": "inhibition at 0.75 µM", "setting": "[1]; [5]", "result": 73.9, "unit": "%"}, {"measurement": "inhibition at 0.55 µM", "setting": "[1]; human respiratory syncytial virus, HEp-2, 48 h, read-out: RSV-GFP inhibition (%), log Conc (uM) -0.25964, replicate values", "result": 59.2, "unit": "%"}, {"measurement": "inhibition at 0.5 µM", "setting": "[1]; [5]", "result": 63.8, "unit": "%"}, {"measurement": "inhibition at 0.45 µM", "setting": "[1]; human respiratory syncytial virus, HEp-2, 48 h, read-out: RSV-GFP inhibition (%), log Conc (uM) -0.34679, replicate values", "result": 30.5, "unit": "%"}, {"measurement": "inhibition at 0.4 µM", "setting": "[1]; human respiratory syncytial virus, HEp-2, 48 h, read-out: RSV-GFP inhibition (%), log Conc (uM) -0.39794, replicate values", "result": 21.3, "unit": "%"}, {"measurement": "inhibition at 0.35 µM", "setting": "[1]; human respiratory syncytial virus, HEp-2, 48 h, read-out: RSV-GFP inhibition (%), log Conc (uM) -0.45593, replicate values", "result": 18.9, "unit": "%"}, {"measurement": "inhibition at 0.3 µM", "setting": "[1]; human respiratory syncytial virus, HEp-2, 48 h, read-out: RSV-GFP inhibition (%), log Conc (uM) -0.52288, replicate values", "result": 4.57, "unit": "%"}, {"measurement": "inhibition at 0.2 µM", "setting": "[1]; human respiratory syncytial virus, HEp-2, 48 h, read-out: RSV-GFP inhibition (%), log Conc (uM) -0.69897, replicate values", "result": 1.85, "unit": "%"}, {"measurement": "inhibition at 10 µM", "setting": "[2]", "result": 93.9, "unit": "%"}]}, {"molecule": "CC(C)[C@@H]1NC(=O)[C@H](C)OC(=O)[C@@H](C(C)C)NC(=O)[C@@H](C(C)C)OC(=O)[C@H](C(C)C)NC(=O)[C@H](C)OC(=O)[C@@H](C(C)C)NC(=O)[C@@H](C(C)C)OC(=O)[C@H](C(C)C)NC(=O)[C@H](C)OC(=O)[C@@H](C(C)C)NC(=O)[C@@H](C(C)C)OC1=O", "note": "[Valinomycin]", "values": [{"measurement": "EC50", "setting": "[1]; human respiratory syncytial virus", "result": 39, "unit": "nM"}, {"measurement": "inhibition at 0.75 µM", "setting": "[1]; [5]", "result": 74.6, "unit": "%"}, {"measurement": "inhibition at 0.5 µM", "setting": "[1]; [5]", "result": 71.6, "unit": "%"}, {"measurement": "inhibition at 0.25 µM", "setting": "[1]; [5]", "result": 78.6, "unit": "%"}, {"measurement": "inhibition at 0.1 µM", "setting": "[1]; [5]", "result": 76.7, "unit": "%"}, {"measurement": "inhibition at 0.09 µM", "setting": "[1]; human respiratory syncytial virus, HEp-2, 48 h, read-out: RSV-GFP inhibition (%), log Conc (uM) -1.04576, replicate values", "result": 77.4, "unit": "%"}, {"measurement": "inhibition at 0.06 µM", "setting": "[1]; human respiratory syncytial virus, HEp-2, 48 h, read-out: RSV-GFP inhibition (%), log Conc (uM) -1.22185, replicate values", "result": 71.2, "unit": "%"}, {"measurement": "inhibition at 0.05 µM", "setting": "[1]; [5]", "result": 77.4, "unit": "%"}, {"measurement": "inhibition at 10 µM", "setting": "[2]", "result": 88, "unit": "%"}]}]}
